# Source: article PMC4729198 (ACS chemical biology, 2015)
# pIC50, pKd: −log10 of the molar value. Like-named read-outs stand apart in the source and are kept apart here.
# Assays:
# RecA = conditions: qRT-PCR, normalized to housekeeping gene SigA
# [1] = HRP-PR H2O2 detection counterscreen for redox-cycling compounds; type: biochemical; conditions: 0.8 mM DTT
# LUM assay counterscreen = type: biochemical; conditions: LOPAC pilot screen, dose-response
# MtbAPSR [2] = target: T1, MtbAPSR (Mycobacterium tuberculosis, UniProt P9WIK3); assay: biochemical; design: species or system M. tuberculosis
# [3] = system: Non replicating WT Mtb H37Rv; assay: Bactericidal activity against nonreplicating; type: cell-based; conditions: Mycobacterium tuberculosis
# [4] = system: Non replicating Msm mc2:155 ΔcysH; type: cell-based, Mycobacterium smegmatis; conditions: 2 mM methionine; Alamar Blue assay
# VERO cells = assay: Cytotoxicity in VERO cells; type: cell-based
# MtbAPSR [5] = target: T1, MtbAPSR; assay: biochemical; type: binding, M. tuberculosis
# T1 sequence (P9WIK3 whole entry): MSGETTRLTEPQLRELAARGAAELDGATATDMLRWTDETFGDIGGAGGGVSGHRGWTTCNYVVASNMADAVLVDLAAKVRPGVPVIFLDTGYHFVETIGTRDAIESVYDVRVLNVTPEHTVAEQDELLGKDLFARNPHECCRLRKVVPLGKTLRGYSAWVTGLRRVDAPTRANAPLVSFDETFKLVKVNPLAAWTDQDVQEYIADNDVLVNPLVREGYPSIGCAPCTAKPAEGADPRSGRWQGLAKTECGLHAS
structure (smiles),measurement,setting,value
CO[C@@]12[C@H](COC(N)=O)C3=C(C(=O)C(C)=C(N)C3=O)N1C[C@@H]1N[C@@H]12 [mitomycin C],upregulation of RecA,RecA,significant upregulation
O=C1C(SCCO)=C(SCCO)C(=O)c2ccccc21 [NSC 95397],generation of H2O2 in HRP-PR assay,[1],showed generation of H2O2
"Cl.N[C@@H](CCl)C(=O)O [β-Chloro-L-alanine hydrochloride, reference compound]",activity in LUM counterscreen,LUM assay counterscreen,no activity
same,activity in LUM assay,"MtbAPSR [2]; LOPAC pilot screen, dose-response",no activity
"Cc1c2ccncc2c(C)c2c1[nH]c1ccccc12 [Compound 5, ellipticine]",MBC,"[3]; read-out: Non replicating WT Mtb H37Rv, (+) Met",12.5 µM
same,MBC,"[3]; read-out: Non replicating WT Mtb H37Rv, (−) Met",12.5 µM
same,activity in LUM counterscreen,LUM assay counterscreen,inactive
same,"Non replicating Msm mc2:155; MBC, ΔcysH",[4],>100 µM
same,lethal concentration (LC90) in VERO cells,VERO cells,63 µM
same,cytotoxicity fold lower compared to bactericidal activity against nonreplicating Mtb,VERO cells; VERO LC90 vs MBC,~ 5 fold
same,pKd,MtbAPSR [5],4.92
same,pIC50,"MtbAPSR [2]; LUM Assay, IC50, dose-response LUM assay, Table 1",5.38
same,pIC50,"MtbAPSR [2]; apparent IC50 in LUM assay, LOPAC pilot screen hit, dose-response, 384-well",4.95
"CSc1nc(N)c2ncn([C@@H]3O[C@H](COP(=O)(O)OP(=O)(O)O)[C@@H](O)[C@H]3O)c2n1.[Na].[Na].[Na] [2-Thiomethyladenoside diphosphate trisodium, reference compound]",activity in LUM counterscreen,LUM assay counterscreen,active
same,activity in LUM assay,MtbAPSR [2],active
